The source of these data is patent US4036957A, “Phenoxy compounds in combinations to suppress gastric bleeding in aspirin therapy” (priority 1975, dated 1977).

This series has as its system aspirin-induced gastric bleeding. Description: Prevention of aspirin-induced gastric bleeding in pyloric-ligated rats, i.p. test compound (Examples 1-22). The class given is in vivo, Female Sprague-Dawley rats. Particulars: for Gastric Bleeding Index: score 0 to 40. The protocol: The prevention of aspirin-induced bleeding in rats was determined by the following procedure. Female Sprague-Dawley rats weighing 150-180 g. were fasted for 24 hours on wire and divided into groups of six animals each. The rats were anesthetized and a ligature placed at the pyloric-duodenal junction. Groups serving as controls received normal saline (4.0 ml/kg, i.p.). […] Some of the compounds were tested at 50 mg/kg, i.p. The rats were sacrificed 60 min. after aspirin administration by cervical dislocation. The volume of the gastric contents was determined and compared against that produced with the same amount of aspirin for change in volume. […] (Gradation between 0 to 40 is on an even scale).

Where [1] appears, read: ip, 1 h, rat, 100 mg/kg i.p., aspirin 375 mg/kg p.o., read-out: Percent Decrease in Mucosal Bleeding vs Control.
[2] abbreviates: ip, rat, 100 mg/kg i.p. (column head states no dose), aspirin 375 mg/kg p.o., read-out: Vol. % Decrease in Gastric Secretion.
Where [3] appears, read: rat, 100 mg/kg i.p. (column head states no dose), aspirin 375 mg/kg p.o.

Where two headings read alike, the source gives them in different places.

With `Cc1cccc(Cl)c1OCC(C)OC(N)=O` (centres unmarked) [Compound 17, 1-(6-chloro-2-methylphenoxy)-2-propylcarbamate], the change in vivo at 100 mg/kg is -72% under setting [1] and -36.5% under setting [2]. Further, under setting [3], the “Gastric Bleeding Index” value came out at 7.5.
As to `COc1ccccc1OCC(O)COC(=O)N(C)C` (centres unmarked) [Compound 4, N,N-dimethyl 3-(2-methoxyphenoxy)-1,2-propanediol-1-carbamate], the change in vivo at 100 mg/kg runs as follows: under setting [1], -70%; under setting [2], -35.2%. Besides, under setting [3], the “Gastric Bleeding Index” value was determined as 11.7.
With `CCCCNCC(O)COc1ccccc1OC` (centres unmarked) [Compound 14, 1-(n-butylamino)-3-(2-methoxyphenoxy)-2-propanol], the change in vivo at 50 mg/kg (ip, 1 h, rat, 50 mg/kg i.p., aspirin 375 mg/kg p.o., read-out: Percent Decrease in Mucosal Bleeding vs Control) is -78%. The change in vivo at 100 mg/kg under setting [1] is -70% and the change in vivo at 100 mg/kg under setting [2] is -35.6%. For the same molecule, the Toxicity remark result (rat, 100 mg/kg i.p.) is “Toxic”. In addition, the “Gastric Bleeding Index” value under setting [3] stood at 5.8.
As for `OCC(CO)Oc1ccccc1` [Compound 1, 2-phenoxy-1,3-propanediol], the change in vivo at 100 mg/kg under setting [1] was -15%. Also, the “Gastric Bleeding Index” value under setting [3] is given as 31.7.
Take `COc1ccc(Cl)cc1OCC(O)CO` (centres unmarked) [Compound 7, 3-(5-chloro-2-methoxyphenoxy)-1,2-propanediol]: the change in vivo at 100 mg/kg was -49% under setting [1] and -42% under setting [2]. Besides, the “Gastric Bleeding Index” value under setting [3] is 19.2.
In the case of `O=C1NCC(COc2ccc(Cl)cc2Cl)O1` (centres unmarked) [Compound 16, 5-(2,4-dichlorophenoxymethyl)-2-oxazolidinone], the change in vivo at 100 mg/kg reads like this: under setting [1], -100%; under setting [2], -44.6%. For the same molecule, the “Gastric Bleeding Index” value under setting [3] is recorded as 0.0.
Regarding “1-(3,5-dimethyl)-2-hydroxypropyl-4-ethyl thiosemicarbazide [Compound 19]”, under setting [3], the “Vol. % Decrease in Gastric Secretion” value was -40.5% and the “Gastric Bleeding Index” value is 0.0. The molecule further returned a Percent Decrease in Mucosal Bleeding vs Control (rat, 100 mg/kg i.p., aspirin 375 mg/kg p.o.) of 100%.
On to `Cc1ccc(Cl)cc1OCC(O)CO` (centres unmarked) [Compound 11, 3-(5-chloro-2-methylphenoxy)-1,2-propanediol], for which the change in vivo at 100 mg/kg was -10% under setting [1] and -29.7% under setting [2]. The “Gastric Bleeding Index” value under setting [3] is 20.8.
As to `COc1ccc(Cl)cc1OCC(C)O` (centres unmarked) [Compound 6, 1-(5-chloro-2-methoxyphenoxy)-2-propanol], the change in vivo at 100 mg/kg is -93% under setting [1] and -42.2% under setting [2]. For the same molecule, the “Gastric Bleeding Index” value under setting [3] stood at 1.7.
For the molecule `Cc1ccc(Cl)cc1OCC(O)COC(N)=O` (centres unmarked) [Compound 9, 3-(5-chloro-2-methylphenoxy)-1,2-propanediol-1-carbamate], the change in vivo at 100 mg/kg reads like this: under setting [1], -81%; under setting [2], -36.6%. The “Gastric Bleeding Index” value under setting [3] came to 7.2.
Turning to `OCC(O)COc1ccccc1` (centres unmarked) [Compound 2, 3-phenoxy-1,2-propanediol], the change in vivo at 100 mg/kg (Rattus norvegicus, ip, 1 h, read-out: Percent Decrease in Mucosal Bleeding vs Control) is -14% and the change in vivo at 100 mg/kg (Rattus norvegicus, ip, read-out: Vol. % Decrease in Gastric Secretion) is -14.1%. The “Gastric Bleeding Index” value under setting [3] is listed as 20.0.
Turning to `COc1ccccc1OCC(C)O` (centres unmarked) [Compound 5, 1-(2-methoxyphenoxy)-2-propanol], the change in vivo at 100 mg/kg under setting [1] was -66% and the change in vivo at 100 mg/kg under setting [2] is -42%. Moreover, the “Gastric Bleeding Index” value under setting [3] is 12.5.
For `Cc1c(Cl)cccc1OCC(C)O` (centres unmarked) [Compound 10, 1-(3-chloro-2-methylphenoxy)-2-propanol], in that order: -40%, -18.8% and 22.5.
`CNC(=O)N1CCC(Oc2cccc(Cl)c2)C1` (centres unmarked) [Compound 20, 3-(3-chlorophenoxy)-1-methylcarbamoyl-pyrrolidine]: the change in vivo at 100 mg/kg by setting is: under setting [1], -100%; under setting [2], -31%. Besides, under setting [3], the “Gastric Bleeding Index” value stood at 0.0.
In the case of `Cc1cc(Cl)ccc1OCC(C)OC(=O)NC(C)C` (centres unmarked) [Compound 18, N-isopropyl 1-(4-chloro-2-methylphenoxy)-2-propylcarbamate], the change in vivo at 100 mg/kg under setting [1] was -28% and the change in vivo at 100 mg/kg under setting [2] is -29.3%. The “Gastric Bleeding Index” value under setting [3] is recorded as 19.2.
With `COc1ccc(Cl)cc1OCC(O)COC(N)=O` (centres unmarked) [Compound 13, 3-(5-chloro-2-methoxyphenoxy)-1,2-propanediol-1-carbamate], the change in vivo at 100 mg/kg under setting [1] was -100% and the change in vivo at 100 mg/kg under setting [2] is -57.6%. Moreover, the “Gastric Bleeding Index” value under setting [3] is 0.0.
On to `NC(=O)OCC(O)COc1ccc(Cl)cc1` (centres unmarked) [Compound 21, 3-(4-chlorophenoxy)-2-hydroxypropylcarbamate], for which the change in vivo at 100 mg/kg was -78% under setting [1] and -30.5% under setting [2]. Moreover, the “Gastric Bleeding Index” value under setting [3] was found to be 4.2.
Take `Cc1ccc(Cl)cc1OCC(C)O` (centres unmarked) [Compound 12, 3-(5-chloro-2-methylphenoxy)-2-propanol]: the change in vivo at 100 mg/kg was -75% under setting [1] and -35.9% under setting [2]. Further, under setting [3], the “Gastric Bleeding Index” value was 5.8.
With `CN(C)CCNC(=O)N1CCC(Oc2cccc(Cl)c2)C1` (centres unmarked) [Compound 30, 3-(3-chlorophenoxy)-N-[2-(dimethylaminoethyl)carboxamide]-1-pyrrolidine], the change in vivo at 100 mg/kg under setting [1] is -100%. For the same molecule, the change in vivo at 30 mg/kg runs as follows: (ip, 1 h, rat, at 30 mg/kg (footnote b), read-out: Percent Decrease in Mucosal Bleeding vs Control) -97%; (ip, rat, at 30 mg/kg (footnote b), read-out: Vol. % Decrease in Gastric Secretion) -32.8%. The “Gastric Bleeding Index” value (rat, at 30 mg/kg (footnote b)) came out at 0.8.
